Measured values as given in ChEMBL document CHEMBL2057148, “Synthesis of a Microcystis aeruginosa predicted metabolite with antimalarial activity” (Bioorg Med Chem Lett, 2012).

How the values were obtained:
[1] = system: Plasmodium falciparum; test: Antimalarial activity against chloroquine-resistant Plasmodium falciparum K1 infected in human A-positive type erythrocytes assessed as [3H]hypoxanthine incorporation after 24 hrs by scintillation counting; format: functional, organism-based
[2] = system: Plasmodium falciparum; test: Ratio of IC50 for aerucyclamide B to compound IC50 for chloroquine-resistant Plasmodium falciparum K1 infected in human A-positive type erythrocytes assessed as [3H]hypoxanthine incorporation after 24 hrs by scintillation counting; format: functional

With CC[C@H](C)[C@@H]1NC(=O)c2csc(n2)[C@H]([C@@H](C)CC)NC(=O)c2csc(n2)CNC(=O)c2nc1oc2C [MACROCYCLE] the IC50 [1] was 180 nM and the “Ratio IC50” value [2] was 4.
